Assay results: US9474790B2, “Stable, protracted GLP-1/glucagon receptor co-agonists for medical use” (Novo Nordisk A/S, priority 2013, dated 2016)
Numbered stars: 1 amine (or outer) side, 2 acyl side, 3 side chain; on linkers, the order of the positions; unused ones are H or OH. Bridge positions count the residues as written; N and C are the ends. Square brackets hold non-standard residues; d marks the D form. Side chains are listed from the residue outwards. Peptide text beside a SMILES is read from it. I, II: the chains in the order shown. * marks the point of attachment. C18 diacid = O=C(O)CCCCCCCCCCCCCCCCC(=O)*; γGlu = O=C(O)[C@H](CCC(=O)[*:2])N[*:1]; Ac4c = NC1(C(=O)O)CCC1; AEEA = NCCOCCOCC(=O)O; Aib = CC(C)(N)C(=O)O

Assays:
[1] = Chemical stability assessment by RP-UPLC; format: physicochemical; details: 333 μM, 8 mM phosphate buffer pH 7.3, 37° C. vs 5° C.
In short: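 Purity loss = (purity after 14 days at 5° C. minus that at 37° C.) relative to the 5° C. value, purity being main-peak area % by RP-UPLC with UV at 215 nm. Samples were 333 μM in 8 mM phosphate, pH 7.3; gradient adjusted for outlying retention times.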

[2] = Thioflavin T (ThT) fibrillation assay for physical stability; format: physicochemical; details: 250 μM in 10 mM HEPES buffer, pH 7.5, 37° C., shaking 960 rpm
In short: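 Fibrillation was followed by ThT (1 μM) fluorescence every 20 min, 444/485 nm, for 250 μM peptide in 10 mM HEPES pH 7.5 shaken at 960 rpm, 37° C. Lag time (t0−2τ) and apparent rate constant (1/τ) come from a sigmoidal fit. Recovery is % of initial concentration remaining soluble after centrifugation and filtration (RP-HPLC).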

| Purity loss; 14 days at 37° C. [1] [%] | THT assay Lag time (Ex. 76) [2] [h] | Compound |
| --- | --- | --- |
| 2 | 45 | CC(C)C[C@H](NC(=O)[C@H](Cc1ccc(O)cc1)NC(=O)[C@H](CCCCN)NC(=O)[C@H](CO)NC(=O)[C@H](CC(C)C)NC(=O)[C@H](CC(=O)O)NC(=O)[C@H](CO)NC(=O)[C@@H](NC(=O)[C@H](Cc1ccccc1)NC(=O)[C@@H](NC(=O)CNC(=O)[C@H](CCC(N)=O)NC(=O)C1(NC(=O)[C@@H](N)Cc2c[nH]cn2)CCC1)[C@@H](C)O)[C@@H](C)O)C(=O)N[C@@H](CCC(=O)O)C(=O)N[C@@H](CO)C(=O)N[C@@H](CCCCN)C(=O)N[C@@H](CCCNC(=N)N)C(=O)N[C@@H](C)C(=O)N[C@@H](CCCNC(=N)N)C(=O)N[C@@H](CCC(=O)O)C(=O)N[C@@H](Cc1ccccc1)C(=O)N[C@H](C(=O)N[C@@H](CCC(N)=O)C(=O)N[C@@H](Cc1c[nH]c2ccccc12)C(=O)N[C@@H](CC(C)C)C(=O)N[C@@H](CC(C)C)C(=O)N[C@@H](CCCCNC(=O)CNC(=O)[C@H](CO)NC(=O)[C@H](CCC(=O)O)NC(=O)CNC(=O)[C@H](CO)NC(=O)CC[C@H](NC(=O)CC[C@H](NC(=O)CCCCCCCCCCCCCCCCC(=O)O)C(=O)O)C(=O)O)C(=O)N[C@H](C(N)=O)[C@@H](C)O)C(C)C [Example 36, N^ε28-[2-[[(2S)-2-[[(2S)-4-carboxy-2-[[2-[[(2S)-2-[[(4S)-4-carboxy-4-[[(4S)-4-carboxy-4-(17-carboxyheptadecanoylamino)butanoyl]amino]butanoyl]amino]-3-hydroxypropanoyl]amino]acetyl]amino]butanoyl]amino]-3-hydroxypropanoyl]amino]acetyl]-[Acb2,Leu10,Glu15,Lys17, Arg20,Glu21,Leu27,Lys28]-Glucagon amide] (I: H-H[Ac4c]QGTFTSDLSKYLESKRAREFVQWLLKT-NH2 / II: {C18 diacid-γGlu-γGlu}-SGESG; amide I:28-II:C; N-terminus assumed) |
| 3 | 45 | CC(C)C[C@H](NC(=O)[C@H](Cc1ccc(O)cc1)NC(=O)[C@H](CCCCN)NC(=O)[C@H](CO)NC(=O)[C@H](CC(C)C)NC(=O)[C@H](CC(=O)O)NC(=O)[C@H](CO)NC(=O)[C@@H](NC(=O)[C@H](Cc1ccccc1)NC(=O)[C@@H](NC(=O)CNC(=O)[C@H](CCC(N)=O)NC(=O)C(C)(C)NC(=O)[C@@H](N)Cc1c[nH]cn1)[C@@H](C)O)[C@@H](C)O)C(=O)N[C@@H](CC(=O)O)C(=O)N[C@@H](C)C(=O)N[C@@H](CCCNC(=N)N)C(=O)N[C@@H](CCCNC(=N)N)C(=O)N[C@@H](C)C(=O)N[C@@H](CCCNC(=N)N)C(=O)N[C@@H](CCC(=O)O)C(=O)N[C@@H](Cc1ccccc1)C(=O)N[C@H](C(=O)N[C@@H](CCC(N)=O)C(=O)N[C@@H](Cc1c[nH]c2ccccc12)C(=O)N[C@@H](CC(C)C)C(=O)N[C@@H](CC(C)C)C(=O)N[C@@H](CC(N)=O)C(=O)N[C@@H](CCCCNC(=O)CC[C@H](NC(=O)CC[C@H](NC(=O)COCCOCCNC(=O)CC[C@H](NC(=O)CCCCCCCCCCCCCCCCC(=O)O)C(=O)O)C(=O)O)C(=O)O)C(N)=O)C(C)C [Example 39, N^ε29-[(4S)-4-carboxy-4-[[(4S)-4-carboxy-4-[[2-[2-[2-[[(4S)-4-carboxy-4-(17-carboxyheptadecanoylamino)butanoyl]amino]ethoxy]ethoxy]acetyl]amino]butanoyl]amino]butanoyl]-[Aib2,Leu10,Ala16,Arg20,Glu21,Leu27,Lys29]-Glucagon amide] (H-H[Aib]QGTFTSDLSKYLDARRAREFVQWLLNK([γGlu-γGlu-AEEA-γGlu-C18 diacid])-NH2; N-terminus assumed) |
| 2 | 40 | CC(C)C[C@H](NC(=O)[C@H](CC(C)C)NC(=O)[C@H](Cc1c[nH]c2ccccc12)NC(=O)[C@H](CCC(N)=O)NC(=O)[C@@H](NC(=O)[C@H](Cc1ccccc1)NC(=O)[C@H](CCC(=O)O)NC(=O)[C@H](CCCNC(=N)N)NC(=O)[C@H](C)NC(=O)[C@H](CCCNC(=N)N)NC(=O)[C@H](CCCNC(=N)N)NC(=O)[C@H](CO)NC(=O)[C@H](CCC(=O)O)NC(=O)[C@H](CC(C)C)NC(=O)[C@H](Cc1ccc(O)cc1)NC(=O)[C@H](CCCCN)NC(=O)[C@H](CO)NC(=O)[C@H](CC(C)C)NC(=O)[C@H](CC(=O)O)NC(=O)[C@H](CO)NC(=O)[C@@H](NC(=O)[C@H](Cc1ccccc1)NC(=O)[C@@H](NC(=O)CNC(=O)[C@H](CCC(N)=O)NC(=O)C(C)(C)NC(=O)[C@@H](N)Cc1c[nH]cn1)[C@@H](C)O)[C@@H](C)O)C(C)C)C(=O)N[C@@H](CC(N)=O)C(=O)N[C@@H](CCCCNC(=O)CC[C@H](NC(=O)CC[C@H](NC(=O)COCCOCCNC(=O)CC[C@H](NC(=O)CCCCCCCCCCCCCCCCC(=O)O)C(=O)O)C(=O)O)C(=O)O)C(N)=O [Example 40, N^ε29-[(4S)-4-carboxy-4-[[(4S)-4-carboxy-4-[[2-[2-[2-[[(4S)-4-carboxy-4-(17-carboxyheptadecanoylamino)butanoyl]amino]ethoxy]ethoxy]acetyl]amino]butanoyl]amino]butanoyl]-[Aib2,Leu10,Glu15,Arg20,Glu21,Leu27,Lys29]-Glucagon amide] (H-H[Aib]QGTFTSDLSKYLESRRAREFVQWLLNK([γGlu-γGlu-AEEA-γGlu-C18 diacid])-NH2; N-terminus assumed) |
| 1 | 45 | CC(C)C[C@H](NC(=O)[C@H](Cc1ccc(O)cc1)NC(=O)[C@H](CCCCN)NC(=O)[C@H](CO)NC(=O)[C@H](CC(C)C)NC(=O)[C@H](CC(=O)O)NC(=O)[C@H](CO)NC(=O)[C@@H](NC(=O)[C@H](Cc1ccccc1)NC(=O)[C@@H](NC(=O)CNC(=O)[C@H](CCC(N)=O)NC(=O)C(C)(C)NC(=O)[C@@H](N)Cc1c[nH]cn1)[C@@H](C)O)[C@@H](C)O)C(=O)N[C@@H](CCC(=O)O)C(=O)N[C@@H](CO)C(=O)N[C@@H](CCCNC(=N)N)C(=O)N[C@@H](CCCNC(=N)N)C(=O)N[C@@H](C)C(=O)N[C@@H](CCCNC(=N)N)C(=O)N[C@@H](CCC(=O)O)C(=O)N[C@@H](Cc1ccccc1)C(=O)N[C@H](C(=O)N[C@@H](CCC(N)=O)C(=O)N[C@@H](Cc1c[nH]c2ccccc12)C(=O)N[C@@H](CC(C)C)C(=O)N[C@@H](CC(C)C)C(=O)N[C@@H](CCCCNC(=O)CC[C@H](NC(=O)CC[C@H](NC(=O)CC[C@H](NC(=O)CCCCCCCCCCCCCCCCC(=O)O)C(=O)O)C(=O)O)C(=O)O)C(=O)N[C@H](C(N)=O)[C@@H](C)O)C(C)C [Example 41, N^ε28-[(4S)-4-carboxy-4-[[(4S)-4-carboxy-4-[[(4S)-4-carboxy-4-(17-carboxyheptadecanoylamino)butanoyl]amino]butanoyl]amino]butanoyl]-[Aib2,Leu10,Glu15, Arg20,Glu21,Leu27,Lys28]-Glucagon amide] (H-H[Aib]QGTFTSDLSKYLESRRAREFVQWLLK([γGlu-γGlu-γGlu-C18 diacid])T-NH2; N-terminus assumed) |
| 3 | 45 | CC(C)C[C@H](NC(=O)[C@H](Cc1ccc(O)cc1)NC(=O)[C@H](CCCCN)NC(=O)[C@H](CO)NC(=O)[C@H](CC(C)C)NC(=O)[C@H](CC(=O)O)NC(=O)[C@H](CO)NC(=O)[C@@H](NC(=O)[C@H](Cc1ccccc1)NC(=O)[C@@H](NC(=O)CNC(=O)[C@H](CCC(N)=O)NC(=O)C(C)(C)NC(=O)[C@@H](N)Cc1c[nH]cn1)[C@@H](C)O)[C@@H](C)O)C(=O)N[C@@H](CCC(=O)O)C(=O)N[C@@H](CO)C(=O)N[C@@H](CCCNC(=N)N)C(=O)N[C@@H](CCCNC(=N)N)C(=O)N[C@@H](C)C(=O)N[C@@H](CCCNC(=N)N)C(=O)N[C@@H](CCC(=O)O)C(=O)N[C@@H](Cc1ccccc1)C(=O)N[C@H](C(=O)N[C@@H](CCC(N)=O)C(=O)N[C@@H](Cc1c[nH]c2ccccc12)C(=O)N[C@@H](CC(C)C)C(=O)N[C@@H](CC(C)C)C(=O)N[C@@H](CCCCNC(=O)COCCOCCNC(=O)COCCOCCNC(=O)CC[C@H](NC(=O)CC[C@H](NC(=O)CC[C@H](NC(=O)CCCCCCCCCCCCCCCCC(=O)O)C(=O)O)C(=O)O)C(=O)O)C(=O)N[C@H](C(N)=O)[C@@H](C)O)C(C)C [Example 42, N^ε28-[2-[2-[2-[[2-[2-[2-[[(4S)-4-carboxy-4-[[(4S)-4-carboxy-4-[[(4S)-4-carboxy-4-(17-carboxyheptadecanoylamino)butanoyl]amino]butanoyl]amino]butanoyl]amino]ethoxy]ethoxy]acetyl]amino]ethoxy]ethoxy]acetyl]-[Aib2,Leu10,Glu15,Arg20,Glu21,Leu27,Lys28]-Glucagon amide] (H-H[Aib]QGTFTSDLSKYLESRRAREFVQWLLK([AEEA-AEEA-γGlu-γGlu-γGlu-C18 diacid])T-NH2; N-terminus assumed) |
